For 8 compounds, TGI results are on record in PubChem BioAssay (NCI).

Test systems include CCRF-CEM leukemia; TK-10 renal; NCI-H460 lung; DU-145 prostate; CAKI-1 renal; HCC-2998 colon; HCT-15 colon; NCI/ADR-RES ovarian; OVCAR-5 ovarian; SK-OV-3 ovarian; OVCAR-8 ovarian; A498 renal; COLO 205 colon; U251 CNS; HL-60(TB) leukemia; K-562 leukemia; HT29 colon; HOP-92 NSCLC.
What all share (experiment): NCI anticancer screen, dose series, 48 h

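Five concentrations, 48 hours, 96-well plates. Definition used: TGI = concentration required for complete inhibition of growth.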 Bounds are passed on as bounds.

As for `Cc1cc(C)n(-c2nc3ccccc3c(=O)n2-c2ccccc2)n1`, the TGI in the experiment on CCRF-CEM leukemia, in the experiment with TK-10 renal, with NCI-H460 lung, with DU-145 prostate, in the experiment on CAKI-1 renal and in the experiment with HCC-2998 colon was more than 100 µM in each case. The TGI in the experiment on HCT-15 colon, in the experiment on NCI/ADR-RES ovarian, in the experiment with OVCAR-5 ovarian, in the experiment on SK-OV-3 ovarian, in the experiment with OVCAR-8 ovarian and with A498 renal was more than 100 µM each time. Further, the TGI in the experiment on COLO 205 colon, in the experiment on U251 CNS, in the experiment with HL-60(TB) leukemia, in the experiment with K-562 leukemia and in the experiment on HT29 colon was more than 100 µM in each case.
Turning to `COc1ccc(CC2c3cc(OC)c(OC)c(OC)c3CC[N+]2(C)C)cc1Oc1ccc(CC2c3cc4c(c(OC)c3CCN2C)OCO4)cc1` (stereo not given), the TGI in the experiment with TK-10 renal, in the experiment on NCI-H460 lung, in the experiment with DU-145 prostate, in the experiment on CAKI-1 renal, in the experiment with HCC-2998 colon and with HCT-15 colon was more than 100 µM in each case. Also, the TGI in the experiment with NCI/ADR-RES ovarian, in the experiment with OVCAR-5 ovarian, with HOP-92 NSCLC, with SK-OV-3 ovarian, with OVCAR-8 ovarian and with A498 renal was more than 100 µM in each case. Moreover, the TGI with COLO 205 colon is more than 100 µM; in the experiment with U251 CNS it was more than 100 µM; in the experiment on HL-60(TB) leukemia, 89.7 µM; in the experiment on K-562 leukemia, more than 100 µM; in the experiment on HT29 colon, more than 100 µM.
As to `CN1CCCC1=NC#N`, the TGI with CCRF-CEM leukemia, in the experiment with TK-10 renal, in the experiment on NCI-H460 lung, in the experiment on DU-145 prostate, in the experiment on CAKI-1 renal and in the experiment on HCC-2998 colon was more than 100 µM each time. Also, the TGI in the experiment on HCT-15 colon, in the experiment on NCI/ADR-RES ovarian, with OVCAR-5 ovarian, in the experiment with SK-OV-3 ovarian, with OVCAR-8 ovarian and in the experiment with A498 renal was more than 100 µM each time. In addition, the TGI in the experiment on COLO 205 colon, in the experiment with U251 CNS, with HL-60(TB) leukemia, with K-562 leukemia and in the experiment with HT29 colon was more than 100 µM each time.
In the case of `O=C1c2cscc2C(=O)C1(O)O`, the TGI in the experiment on CCRF-CEM leukemia was 52.9 µM; in the experiment on TK-10 renal, more than 100 µM; in the experiment on NCI-H460 lung, more than 100 µM; in the experiment on DU-145 prostate it was more than 100 µM; in the experiment on CAKI-1 renal, 83.7 µM; with HCT-15 colon, more than 100 µM. In addition, the TGI in the experiment on NCI/ADR-RES ovarian, in the experiment with OVCAR-5 ovarian, with HOP-92 NSCLC, in the experiment on SK-OV-3 ovarian, in the experiment on OVCAR-8 ovarian and in the experiment on A498 renal was more than 100 µM in each case. The TGI with COLO 205 colon was 36.7 µM; with U251 CNS it was more than 100 µM; with HL-60(TB) leukemia, 72.5 µM; in the experiment with K-562 leukemia, more than 100 µM; in the experiment on HT29 colon it was more than 100 µM.
Regarding `COc1ccc2oc(=O)c(CC=C(C)C)c(O)c2c1C`, the TGI with CCRF-CEM leukemia, with TK-10 renal, in the experiment with NCI-H460 lung, in the experiment with DU-145 prostate, in the experiment with CAKI-1 renal and in the experiment on HCC-2998 colon was more than 100 µM each time. For the same compound, the TGI with HCT-15 colon, in the experiment on NCI/ADR-RES ovarian, in the experiment on OVCAR-5 ovarian, in the experiment on SK-OV-3 ovarian, with OVCAR-8 ovarian and with A498 renal was more than 100 µM throughout. Also, the TGI in the experiment with COLO 205 colon, in the experiment on U251 CNS, in the experiment on HL-60(TB) leukemia, in the experiment on K-562 leukemia and with HT29 colon was more than 100 µM in each case.
Regarding `CC(C)Oc1ccc(CNC2=NCCO2)c2ccccc12`, the TGI in the experiment with CCRF-CEM leukemia was 30.4 µM; in the experiment on TK-10 renal it was 30.2 µM; with NCI-H460 lung it was 26.7 µM; in the experiment on DU-145 prostate, 33.5 µM; with HCC-2998 colon, 25.3 µM; with HCT-15 colon it was 29.8 µM. Moreover, the TGI turned out to be 31.9 µM in the experiment on NCI/ADR-RES ovarian; 24.3 µM with OVCAR-5 ovarian; 30.9 µM with SK-OV-3 ovarian; 31.9 µM in the experiment with OVCAR-8 ovarian; 23 µM with A498 renal; 36.8 µM with COLO 205 colon. Besides, the TGI with U251 CNS is 32.1 µM; with HL-60(TB) leukemia it was 23.6 µM; in the experiment on K-562 leukemia it was 15.8 µM; with HT29 colon, 16.3 µM.
As to `COc1ccccc1N1C(=O)CS(=O)(=O)C1c1cccc(Oc2ccccc2)c1` (stereo not given), the TGI in the experiment with CCRF-CEM leukemia is more than 100 µM; in the experiment with TK-10 renal, 33.8 µM; with NCI-H460 lung, 29.4 µM; with DU-145 prostate it was 71.2 µM; with CAKI-1 renal, 64.3 µM; in the experiment with HCT-15 colon, 36.2 µM. Further, the TGI came to 40 µM in the experiment with NCI/ADR-RES ovarian; 59 µM in the experiment on OVCAR-5 ovarian; 24.7 µM in the experiment with HOP-92 NSCLC; 73.5 µM in the experiment with SK-OV-3 ovarian; 34.3 µM in the experiment with OVCAR-8 ovarian; 34.6 µM in the experiment with A498 renal. The TGI came to 34.4 µM in the experiment with COLO 205 colon; 29.7 µM in the experiment with U251 CNS; 79.9 µM in the experiment with HL-60(TB) leukemia; 19.1 µM in the experiment on K-562 leukemia; 44.1 µM in the experiment with HT29 colon.
Regarding `COc1cc(S(=O)(=O)Nc2nc(-c3ccc(N)cc3)cs2)ccc1Cl`, the TGI with CCRF-CEM leukemia, in the experiment with TK-10 renal, in the experiment with NCI-H460 lung, in the experiment on DU-145 prostate, with CAKI-1 renal and with HCT-15 colon was more than 100 µM in each case. Also, the TGI in the experiment on NCI/ADR-RES ovarian, in the experiment on OVCAR-5 ovarian, with HOP-92 NSCLC, in the experiment with SK-OV-3 ovarian, with OVCAR-8 ovarian and with A498 renal was more than 100 µM in each case. For the same compound, the TGI with COLO 205 colon, in the experiment with U251 CNS, in the experiment on HL-60(TB) leukemia, with K-562 leukemia and in the experiment with HT29 colon was more than 100 µM throughout.
